Test results reported in ChEMBL document CHEMBL5346962, “Discovery of Sulanemadlin (ALRN-6924), the First Cell-Permeating, Stabilized α-Helical Peptide in Clinical Development” (J Med Chem, 2023).
Calls of active or inactive are those of the source. The rule behind the calls is not given here.

What was measured:
[1] = test system: Mus musculus; test: Protection against topotecan-induced epithelium hyperplasia in gastrointestinal tract of C57BL/6 mouse at 2.4 mg/kg administered on day 0 to 4 and co-administered 30 mins prior to topotecan on day 1 to 4 followed by topotecan administration on day 5 measured on day 9 by H&E staining based analysis; type: functional, organism-based; settings: time 9.0 day
[2] = test system: NCI-H69; test: Antitumor activity against human NCI-H69 cells xenografted in athymic nu/nu mouse assessed as reduction in tumor volume at 8 mg/kg administered on day 0 to 4 and co-administered 30 mins prior to topotecan on day 1 to 4 followed by topotecan administration on day 5 measured for 60 days; type: functional, organism-based; settings: time 60.0 day
[3] = Half life in rat at 2.5 mg/kg by LC-MS/MS analysis; type: ADME, organism-based; settings: in vivo
[4] = test system: MCF7; test: Antitumor activity against human MCF7 cells xenografted in athymic nude BALB/c mouse assessed as decrease in BrdU incorporation at 20 mg/kg, iv by immunohistochemical analysis; type: functional, organism-based; settings: time <= 48.0 hrs, TDE = time-dependent effect
[5] = Cmax in rat at 2.5 mg/kg by LC-MS/MS analysis; type: ADME, organism-based; design: dose 2.5 mg/kg; settings: in vivo
[6] = Plasma protein binding in human at 2 to 50 uM; type: ADME, cell-free; settings: dose 2-50 µM, read-out: PPB (converted)
[7] = Half life in rat at 10 mg/kg by LC-MS/MS analysis; type: ADME, organism-based; settings: in vivo
[8] = test system: Fibroblast; test: Protection against chemotherapy-induced apoptosis in human fibroblast assessed as decrease in caspase-3/7 level preincubated for 16 hrs followed by docetaxel trihydrate addition measured after 32 hrs; type: functional, cell-based; settings: dose 4.6-10 µM, time 48.0 hrs
[9] = Plasma protein binding in human at 250 uM; type: ADME, cell-free; settings: read-out: PPB (converted)
[10] = test system: Fibroblast; test: Protection against chemotherapy-induced apoptosis in human fibroblast assessed as decrease in caspase-3/7 level preincubated for 16 hrs followed by carboplatin addition measured after 32 hrs; type: functional, cell-based; settings: dose 4.6-10 µM, time 48.0 hrs
[11] = test system: Fibroblast; test: Protection against chemotherapy-induced apoptosis in human fibroblast assessed as decrease in caspase-3/7 level preincubated for 16 hrs followed by paclitaxel addition measured after 32 hrs; type: functional, cell-based; settings: dose 4.6-10 µM, time 48.0 hrs
[12] = Plasma protein binding in monkey at 250 uM; type: ADME, cell-free, Macaca mulatta; settings: rhesus monkey, read-out: PPB (converted)
[13] = Plasma protein binding in mouse at 250 uM; type: ADME, cell-free; settings: read-out: PPB (converted)
[14] = AUC (0 to 24 hrs) in plasma of athymic nu/nu mouse xenografted with human SJSA-1 cells at 25 mg/kg, iv measured for 24 hrs by LC-MS-MS analysis; type: ADME, organism-based; design: time 24 hrs, dose 25 mg/kg, route iv; settings: in vivo
[15] = Plasma protein binding in monkey at 2 to 50 uM; type: ADME, cell-free, Macaca mulatta; settings: rhesus monkey, dose 2-50 µM, read-out: PPB (converted)

CC(=O)N[C@@H](CC(C)C)C(=O)N[C@H](C(=O)N[C@@H](Cc1ccccc1)C(=O)N[C@]1(C)CCCCCC/C=C/CCC[C@@](C)(C(=O)N[C@@H](C)C(=O)N[C@@H](C)C(=O)N[C@@H](C)C(=O)N[C@@H](C)C(=O)N[C@@H](C)C(=O)N[C@H](C)C(N)=O)NC(=O)[C@H](CC(C)C)NC(=O)[C@H](CCC(N)=O)NC(=O)[C@H](C)NC(=O)[C@H](Cc2c[nH]c3ccccc23)NC(=O)[C@H](Cc2ccc(O)cc2)NC(=O)[C@H](CCC(=O)O)NC1=O)[C@@H](C)O
Activity [1]: Active | Activity [2]: Active | half-life [3]: 1.4 h | Activity [4]: Tde | Cmax [5]: 49900 ng/mL | fraction unbound at up to 50 µM [6]: 0.08 | half-life [7]: 3.8 h | Activity [8]: Dose-Dependent Effect | fraction unbound at 250 µM [9]: 0.19 | Activity [10]: Dose-Dependent Effect | Activity [11]: Dose-Dependent Effect | fraction unbound at 250 µM [12]: 0.12 | fraction unbound at 250 µM [13]: 0.02 | AUC [14]: 3180 µg·h/mL | fraction unbound at up to 50 µM [15]: 0.08
